Measurements taken from patent publication US20080214471A1, “Method for inhibition of viral infection” (priority 1992, published 2008).

Columns and labels:
HDV virions [1] = assay: Inhibition of HDV virion production in co-transfected Huh-7 cells (northern blot for HDV genomic RNA); format: cell-based, hepatitis delta virus (HDV); details: Huh-7 cells co-transfected with HDV and HBV plasmids
From the text: (§1) FIG. 8 illustrates that FT1-277 inhibits production of HDV virions. Huh-7 cells were co-transfected with HDV and HBV encoding plasmids to establish production of HDV virions, as described in the text, and grown in the presence of the indicated concentrations of FTI-277. HDV genome replication in the cells, and the amount of HDV genome-containing virions released into the supernatants, were monitored by northern blot analysis with a probe for HDV genomic RNA (left panel). The results were quantitated with a phosphoimager and the amount of virions produced at each concentration of FTI-277, expressed as a percentage of the no drug control, was plotted (purple bars, right panel). Also plotted are the results of assays for cellular metabolism (XTT assay, yellow bars), and general protein synthesis and secretion (HBV surface antigen released into the media supernatants, blue bars).
Completely infectious HDV particles were produced using the system disclosed in Sureau et al., J. Virol., 66:1241-5 (1992). […]
(§2) FTI-277, a prenylation inhibitor, was tested for its ability to inhibit HDV virion production. […] Non-specific toxicity was assessed by free HBV surface antigen assay, which assesses effects on general protein synthesis and secretion, and a standard XTT assay, which measures overall cell metabolism.

Huh-7 cells [2] = assay: Standard XTT assay (overall cell metabolism); format: cell-based; details: at a concentration that effectively inhibits HDV virion production
From the text: as §1, §2

HDV virions [3] = assay: In vivo treatment of HDV in HBV-transgenic mice, serum HDV virions by RT-PCR; details: 50 mg/kg/day IP for one week
Huh-7 cells [4] = assay: Free HBV surface antigen assay (general protein synthesis and secretion); format: cell-based; details: at a concentration that effectively inhibits HDV virion production
From the text: as §1, §2

[5] = Serum alanine aminotransferase (ALT) assay for non-specific toxicity; details: HBV-transgenic mice, 50 mg/kg/day IP for one week, on average

COC(=O)[C@H](CCSC)NC(=O)c1ccc(NC[C@@H](N)CS)cc1-c1ccccc1 [FTI-277]
HDV virion production (HDV virions [1]; micromolar concentration): no detectable HDV virions produced | HDV virion production (HDV virions [1]; mid-nanomolar concentration): dramatically inhibited | overall cell metabolism (XTT assay) (Huh-7 cells [2]): essentially does not affect | production and release of HDV virions into the serum (HDV virions [3]): completely eliminated | general protein synthesis and secretion (free HBV surface antigen released into media) (Huh-7 cells [4]): essentially does not affect | level of ALT compared with the placebo [5]: same level of ALT as the placebo
